Among the data in the NIST ThermoML archive (doi:10.1016/j.jct.2013.05.003) are speed of sound values, retold here.

± gives the expanded uncertainty stated by the source.

For data set [1] the following is noted: 101.3 kPa, Liquid, Sing-around technique in a fixed-path interferometer.
Data set [2] is described as follows: xn = mol fraction of the nth substance listed. The following applies: 283.15 K; 101.3 kPa; Liquid; fixed-path interferometer; x2 = 0.

A word on the speed of sound: it is the propagation velocity of pressure waves in the medium. Take `CCOCCCN` [3-ethoxy-1-propanamine]: the speed of sound is reported as 1386.4 ± 1.6 m/s in data set [1] (283.15 K); 1364.2 ± 1.6 m/s in data set [1] (288.15 K); 1342 ± 1.6 m/s in data set [1] (293.15 K); 1321.2 ± 1.6 m/s in data set [1] (298.15 K); 1300.4 ± 1.6 m/s in data set [1] (303.15 K).

In the case of `O` [water], the speed of sound in data set [1] (283.15 K) stood at 1447.3 ± 1.3 m/s.

For `O` [water] + CCOCCCN, the speed of sound in data set [2] is recorded as 1447.3 ± 1.3 m/s.
